Experimental data as given in patent US20090118253A1, “COMPOSITIONS AND METHODS FOR TREATING DYSFUNCTIONAL UTERINE BLEEDING” (REPROS THERAPEUTICS INC., priority 2007, published 2009).

Tests used:
[1] = Urinary progesterone levels (luteal phase) in cynomolgus monkeys; assay type: in vivo, Cynomolgus monkeys (Macaca fascicularis); conditions: n=14 per group; CDB-4124 or RU-486 oral 1.0 mg/kg/day for 36 weeks; Lupron IM once per month
Method: (§1) Cynomolgus monkeys (Macaca fascicularis) (n=14) were treated orally for 36 weeks with CDB-4124 or RU-486 at 1.0 mg/kg/day or with placebo (control). Another group (n=14) received Lupron® IM once per month. Urinary progesterone levels were measured for each animal for one month during the middle of the study (weeks 14-17) and for the last month of the study (weeks 33-36).

[2] = test system: pre-menopausal adult women diagnosed with endometriosis; experiment: Six month endometriosis study: pain diaries and pain intensity surveys; assay type: in vivo, human; conditions: for pain free days, percent: 180 day treatment period
Method: Pain reduction also occurred more rapidly than with the active control, Lucrin®. The response of pain to treatment in this study was analyzed in two ways. Patients in the study maintained daily pain diaries to record the severity and frequency of pain. In addition, at each office visit, patients filled out endometriosis symptom surveys that included a questionnaire that evaluated intensity of pain on a bad day on a scale of 0-10 with 10 being the greatest intensity. […] This decrease in duration of pain was statistically better (p=0.0012) than the 117.8 (74%; standard deviation 51.4 days) pain free days achieved with Lucrin n. […] Patients on CDB-4124 12.5 mg and 25 mg doses had 115.9 (66%; standard deviation 69.2 days) and 133.6 (75%; standard deviation 27.4 days) pain free days, respectively. […] The 25 mg and 12.5 mg doses of CDB-4124 were not statistically different from Lucrin®. […] The intensity of pain was asked by the question: “On a scale of 1-10, with 0 being no pain and 10 being extreme pain, how intense was your pain on a bad day?” The mean scores for intensity of pain at baseline were 6.3 for the CDB-4124 groups and 6.1 for the Lucrin® group. […] At month three all four active treatment groups had satistically significant reduction in pain compared with baseline, with the following scores: 3.7 (p=0.03) for 12.5 mg CDB-4124, 3.2 (p=0.03) for 25 mg CDB-4124, 1.6 (p=0.015) for 50 mg CDB-4124 and 1.5 (p=0.016) for Lucrin®. These dose related reductions continued until month six when the values for pain intensity were 2.0 (p=0.008), 2.8 (p=0.023), 0.6 (p=0.004) and 0.7 (p=0.016), respectively. Two months after stopping treatment pain returned and was of similar intensity in all four treatment groups.

[3] = Estrogenic, androgenic, anti-estrogenic and anti-androgenic activities
[4] = test system: Cynomolgus monkey endometrial epithelia, uterus stroma and breast; experiment: BrdU incorporation, tissue proliferation in cynomolgus monkeys; assay type: in vivo, Cynomolgus monkeys (Macaca fascicularis); conditions: week 36, % cells positive for incorporation of BrdU, three animals per group
Method: At week 36, three animals from each group of Example 6 were injected within 24 hours of sacrifice with the thymidine analog bromodeoxyuridine (BrdU), a marker of proliferating cells and their progeny, to assess tissue proliferation. Full thickness uterine sections were stained and examined microscopically for evidence of proliferation in terms of the % cells positive for incorporation of BrdU: […]

[5] = test system: pre-menopausal adult women diagnosed with endometriosis; experiment: Six month endometriosis study: side effects and bleeding events; assay type: in vivo, human
Method: Although this was a small study and no definitive conclusions can be made from the safety data, there was no single signal of safety observed.
A similar event was not seen at the 50 mg dose during the treatment phase. Greater than normal bleeding occurred in two patients in the 50 mg CDB-4124 group after treatment was stopped and a D&C was performed in one and the other successfully managed conservatively.

[6] = Urinary estrogen levels (follicular phase) in cynomolgus monkeys; assay type: in vivo, Cynomolgus monkeys (Macaca fascicularis); design: Urinary estrogen, follicular phase, Mean: unit not given here; conditions: for Urinary estrogen, follicular phase, Mean: CDB-4124 or RU-486 oral 1.0 mg/kg/day, Lupron IM once per month
Method: as §1, with “33-36). The results are presented below:” for “33-36).”
Urinary estrogen levels were measured for each animal of Example 6 for one month during the middle of the study (weeks 14-17) and for the last month of the study (weeks 33-36). The follicular phase results are based on 35 baseline ovulating cycles.

[7] = test system: rabbit progesterone receptor (rbPR) and glucocorticoid receptor (rbGR); experiment: Receptor-binding assays, ratio of relative binding affinities rbPR/rbGR; conditions: ratio of relative binding affinities (RBA = EC50 of standard/EC50 of test compound x 100) for rbPR and rbGR
Method: Certain antiprogestins were tested in receptor-binding assays for their ability to bind rabbit progesterone receptor (rbPR) and glucocorticoid receptor (rbGR). Briefly, cytosol containing PR or GR were prepared in TEGMD buffer (10 mM Tris, pH 7.2, 1.5 mM EDTA, 0.2 mM sodium molybdate, 10% glycerol, 1 mM DTT) from uterus or thymus, respectively, of estradiol-primed immature rabbits. For PR binding, the cytosol was incubated with 6 nM 1,2-[^3H]progesterone (50.0 Ci/mmole) and competitors were added at concentrations from 2 to 100 nM. For binding to GR, the cytosol was incubated with 6 nM 6,7-[^3H]-dexamethasone (40 Ci/mmol) and test compounds were added at concentrations from 20 to 100 nM. After overnight incubation at 4 C, bound and unbound [^3H] steroids were separated by addition of dextran-coated charcoal and centrifugation at 2100×g for 15 min at 4 C. Supernatants containing the [3H]-steroid receptor complexes were decanted into vials containing 4 ml Optifluor (Packard Instrument Co.), vortexed, equilibrated in a liquid scintillation counter for 30 minutes and then counted for 2 minutes. The EC50 (Effective Concentration) for each standard curve and each of the compound curves was determined by entering the counting data into a four parameter sigmoidal computer program (RiaSmart® Immunoassay Data Reduction Program, Packard Instrument Co., Meriden, Conn.). Relative binding affinity (RBA) for each compound was calculated using the following equation: EC50 of standard/EC50 of test compound×100. The standards for the PR and GR assays were unlabeled progesterone and dexamethasone, respectively. The results of these experiments are summarized in Table 1, as a ratio of the relative binding affinities of each compound for the rbPR and rbGR receptors (rbPR/rbGR).

In the case of `COCC(=O)[C@@]1(OC(C)=O)CC[C@H]2[C@@H]3CCC4=CC(=O)CCC4=C3[C@@H](c3ccc(N(C)C)cc3)C[C@@]21C` [CDB-4124, 21-methoxy-17α-acetoxy-11β-(4 N,N-dimethylaminophenyl)-19-norpregna-4,9-diene-3,20-dione], the “Decrease in luteal phase progesterone (number of animals)” value [1] is reported as 8, the “No decrease in luteal phase progesterone (number of animals)” value [1] is reported as 6 and the “mean score for intensity of pain on a bad day (scale 0-10)” value ([2]; baseline) is reported as 6.3. The “score for intensity of pain on a bad day (scale 0-10)” value ([2]; month six, 12.5 mg/day) was 2.0, the “score for intensity of pain on a bad day (scale 0-10)” value ([2]; month six, 25 mg/day) was 2.8 and the “score for intensity of pain on a bad day (scale 0-10)” value ([2]; month six, 50 mg/day) was 0.6. For the same compound, the “score for intensity of pain on a bad day (scale 0-10)” value ([2]; month three, 12.5 mg/day) was 3.7, the “score for intensity of pain on a bad day (scale 0-10)” value ([2]; month three, 25 mg/day) was 3.2 and the “score for intensity of pain on a bad day (scale 0-10)” value ([2]; month three, 50 mg/day) was 1.6. For the same compound, the “pain free days over the 180 day treatment period” value ([2]; women, 12.5 mg/day oral) was 115.9 days, the “pain free days, percent” value ([2]; women, 12.5 mg/day oral) was 66% and the “pain free days over the 180 day treatment period” value ([2]; women, 25 mg/day oral) was 133.6 days. For the same compound, the “pain free days, percent” value ([2]; women, 25 mg/day oral) was 75%, the “days of pain over the first three months” value ([2]; women, 50 mg/day oral) was “less than 1 day” and the “pain free days over the 180 day treatment period” value ([2]; women, 50 mg/day oral) was 170 days. The “pain free days, percent” value ([2]; women, 50 mg/day oral) was 96%, the “estrogenic, androgenic, anti-estrogenic, and anti-androgenic activities” value [3] was “lack estrogenic, androgenic, anti-estrogenic, and anti-androgenic activities” and the “Breast Brdu-%” value [4] was 1.9 ± 0.7%. For the same compound, the “Uterus epithelium Brdu-%” value [4] was 2.1 ± 2.2%, the “Uterus stroma Brdu-%” value [4] was 1.1 ± 0.25% and the “cases of non-menstrual spotting and bleeding with excessive endometrial thickening needing D&C” value ([5]; 12.5 mg and 25 mg CDB-4124 groups, treatment phase) was “two cases”. For the same compound, the “patients with greater than normal bleeding after treatment was stopped” value ([5]; 50 mg CDB-4124 group) was “two patients”, the “non-menstrual spotting and bleeding with excessive endometrial thickening needing D&C” value ([5]; 50 mg dose, treatment phase) was “not seen” and the side effects ([5]; women, six month study) was “generally mild”. The “Follicular phase estrogen Lower?” value ([6]; Week 18) was “No”, the “Urinary estrogen, follicular phase, Mean” value ([6]; Week 18) was 63.8 and the “Follicular phase estrogen Lower?” value ([6]; Week 36) was “No”. For the same compound, the “Urinary estrogen, follicular phase, Mean” value ([6]; Week 36) was 67.3 and the rbPR/rbGR [7] was 1.58.
